Reference: patent US20200239530A1, “COMPOUNDS AND METHODS OF MODULATING PROTEIN DEGRADATION” (Vividion Therapeutics, Inc., priority 2017, published 2020)

How the values were obtained:
Assay in all cases: Cysteine liganding, probe competition
Assay type in all cases: binding
[1] = target: T1, DCAF17 DDB1- and CUL4-associated factor 17 (Homo sapiens, UniProt Q5H9S7)
T1 construct: Cells were resuspended in cold PBS on ice and sonicated with a probe sonicator to achieve lysis; endogenous in cells
T1 sequence (Q5H9S7 1-520): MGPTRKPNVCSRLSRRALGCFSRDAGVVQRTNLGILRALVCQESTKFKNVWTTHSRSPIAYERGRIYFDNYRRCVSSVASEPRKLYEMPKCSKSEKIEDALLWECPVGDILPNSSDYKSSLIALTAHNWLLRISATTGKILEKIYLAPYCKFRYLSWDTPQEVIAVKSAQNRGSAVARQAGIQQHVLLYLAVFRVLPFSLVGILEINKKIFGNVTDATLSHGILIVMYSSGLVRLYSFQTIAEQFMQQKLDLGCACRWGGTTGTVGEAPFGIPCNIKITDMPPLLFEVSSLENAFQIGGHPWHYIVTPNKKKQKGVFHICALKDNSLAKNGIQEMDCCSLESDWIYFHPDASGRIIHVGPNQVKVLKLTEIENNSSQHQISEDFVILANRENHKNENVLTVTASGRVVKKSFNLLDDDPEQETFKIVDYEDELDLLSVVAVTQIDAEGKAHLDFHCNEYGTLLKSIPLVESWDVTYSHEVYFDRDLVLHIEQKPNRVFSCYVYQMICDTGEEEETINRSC
How it was run: (§1)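 Probe competition in native proteome: 5 mg/ml lysate, compound 1 hr 25° C, then desthiobiotin iodoacetamide (10 mM stock) 1 hr 25° C; acetone ppt, urea/DTT reduction, iodoacetamide alkylation, trypsin, streptavidin pull-down.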

[2] = target: T2, HUWE1 E3 ubiquitin-protein ligase HUWE1 (Homo sapiens, UniProt Q7Z6Z7)
T2 construct: Cells were resuspended in cold PBS on ice and sonicated with a probe sonicator to achieve lysis; endogenous in cells
How it was run: as §1

[3] = target: T3, L2HGDH L-2-hydroxyglutarate dehydrogenase, mitochondrial (Homo sapiens, UniProt Q9H9P8)
T3 construct: Cells were resuspended in cold PBS on ice and sonicated with a probe sonicator to achieve lysis; endogenous in cells
T3 sequence (Q9H9P8 52-463): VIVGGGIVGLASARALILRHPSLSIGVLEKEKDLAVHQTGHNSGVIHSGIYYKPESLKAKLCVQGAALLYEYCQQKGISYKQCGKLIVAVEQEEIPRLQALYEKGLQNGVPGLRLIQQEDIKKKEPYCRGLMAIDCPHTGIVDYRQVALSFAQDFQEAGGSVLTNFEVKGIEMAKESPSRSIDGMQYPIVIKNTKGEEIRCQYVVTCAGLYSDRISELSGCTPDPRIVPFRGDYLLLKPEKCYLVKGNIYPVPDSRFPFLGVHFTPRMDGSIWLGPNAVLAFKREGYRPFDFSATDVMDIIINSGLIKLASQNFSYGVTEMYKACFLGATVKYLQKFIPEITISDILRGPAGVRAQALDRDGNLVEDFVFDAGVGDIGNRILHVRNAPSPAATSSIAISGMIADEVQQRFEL
How it was run: as §1

T2 sequence (Q7Z6Z7 whole entry): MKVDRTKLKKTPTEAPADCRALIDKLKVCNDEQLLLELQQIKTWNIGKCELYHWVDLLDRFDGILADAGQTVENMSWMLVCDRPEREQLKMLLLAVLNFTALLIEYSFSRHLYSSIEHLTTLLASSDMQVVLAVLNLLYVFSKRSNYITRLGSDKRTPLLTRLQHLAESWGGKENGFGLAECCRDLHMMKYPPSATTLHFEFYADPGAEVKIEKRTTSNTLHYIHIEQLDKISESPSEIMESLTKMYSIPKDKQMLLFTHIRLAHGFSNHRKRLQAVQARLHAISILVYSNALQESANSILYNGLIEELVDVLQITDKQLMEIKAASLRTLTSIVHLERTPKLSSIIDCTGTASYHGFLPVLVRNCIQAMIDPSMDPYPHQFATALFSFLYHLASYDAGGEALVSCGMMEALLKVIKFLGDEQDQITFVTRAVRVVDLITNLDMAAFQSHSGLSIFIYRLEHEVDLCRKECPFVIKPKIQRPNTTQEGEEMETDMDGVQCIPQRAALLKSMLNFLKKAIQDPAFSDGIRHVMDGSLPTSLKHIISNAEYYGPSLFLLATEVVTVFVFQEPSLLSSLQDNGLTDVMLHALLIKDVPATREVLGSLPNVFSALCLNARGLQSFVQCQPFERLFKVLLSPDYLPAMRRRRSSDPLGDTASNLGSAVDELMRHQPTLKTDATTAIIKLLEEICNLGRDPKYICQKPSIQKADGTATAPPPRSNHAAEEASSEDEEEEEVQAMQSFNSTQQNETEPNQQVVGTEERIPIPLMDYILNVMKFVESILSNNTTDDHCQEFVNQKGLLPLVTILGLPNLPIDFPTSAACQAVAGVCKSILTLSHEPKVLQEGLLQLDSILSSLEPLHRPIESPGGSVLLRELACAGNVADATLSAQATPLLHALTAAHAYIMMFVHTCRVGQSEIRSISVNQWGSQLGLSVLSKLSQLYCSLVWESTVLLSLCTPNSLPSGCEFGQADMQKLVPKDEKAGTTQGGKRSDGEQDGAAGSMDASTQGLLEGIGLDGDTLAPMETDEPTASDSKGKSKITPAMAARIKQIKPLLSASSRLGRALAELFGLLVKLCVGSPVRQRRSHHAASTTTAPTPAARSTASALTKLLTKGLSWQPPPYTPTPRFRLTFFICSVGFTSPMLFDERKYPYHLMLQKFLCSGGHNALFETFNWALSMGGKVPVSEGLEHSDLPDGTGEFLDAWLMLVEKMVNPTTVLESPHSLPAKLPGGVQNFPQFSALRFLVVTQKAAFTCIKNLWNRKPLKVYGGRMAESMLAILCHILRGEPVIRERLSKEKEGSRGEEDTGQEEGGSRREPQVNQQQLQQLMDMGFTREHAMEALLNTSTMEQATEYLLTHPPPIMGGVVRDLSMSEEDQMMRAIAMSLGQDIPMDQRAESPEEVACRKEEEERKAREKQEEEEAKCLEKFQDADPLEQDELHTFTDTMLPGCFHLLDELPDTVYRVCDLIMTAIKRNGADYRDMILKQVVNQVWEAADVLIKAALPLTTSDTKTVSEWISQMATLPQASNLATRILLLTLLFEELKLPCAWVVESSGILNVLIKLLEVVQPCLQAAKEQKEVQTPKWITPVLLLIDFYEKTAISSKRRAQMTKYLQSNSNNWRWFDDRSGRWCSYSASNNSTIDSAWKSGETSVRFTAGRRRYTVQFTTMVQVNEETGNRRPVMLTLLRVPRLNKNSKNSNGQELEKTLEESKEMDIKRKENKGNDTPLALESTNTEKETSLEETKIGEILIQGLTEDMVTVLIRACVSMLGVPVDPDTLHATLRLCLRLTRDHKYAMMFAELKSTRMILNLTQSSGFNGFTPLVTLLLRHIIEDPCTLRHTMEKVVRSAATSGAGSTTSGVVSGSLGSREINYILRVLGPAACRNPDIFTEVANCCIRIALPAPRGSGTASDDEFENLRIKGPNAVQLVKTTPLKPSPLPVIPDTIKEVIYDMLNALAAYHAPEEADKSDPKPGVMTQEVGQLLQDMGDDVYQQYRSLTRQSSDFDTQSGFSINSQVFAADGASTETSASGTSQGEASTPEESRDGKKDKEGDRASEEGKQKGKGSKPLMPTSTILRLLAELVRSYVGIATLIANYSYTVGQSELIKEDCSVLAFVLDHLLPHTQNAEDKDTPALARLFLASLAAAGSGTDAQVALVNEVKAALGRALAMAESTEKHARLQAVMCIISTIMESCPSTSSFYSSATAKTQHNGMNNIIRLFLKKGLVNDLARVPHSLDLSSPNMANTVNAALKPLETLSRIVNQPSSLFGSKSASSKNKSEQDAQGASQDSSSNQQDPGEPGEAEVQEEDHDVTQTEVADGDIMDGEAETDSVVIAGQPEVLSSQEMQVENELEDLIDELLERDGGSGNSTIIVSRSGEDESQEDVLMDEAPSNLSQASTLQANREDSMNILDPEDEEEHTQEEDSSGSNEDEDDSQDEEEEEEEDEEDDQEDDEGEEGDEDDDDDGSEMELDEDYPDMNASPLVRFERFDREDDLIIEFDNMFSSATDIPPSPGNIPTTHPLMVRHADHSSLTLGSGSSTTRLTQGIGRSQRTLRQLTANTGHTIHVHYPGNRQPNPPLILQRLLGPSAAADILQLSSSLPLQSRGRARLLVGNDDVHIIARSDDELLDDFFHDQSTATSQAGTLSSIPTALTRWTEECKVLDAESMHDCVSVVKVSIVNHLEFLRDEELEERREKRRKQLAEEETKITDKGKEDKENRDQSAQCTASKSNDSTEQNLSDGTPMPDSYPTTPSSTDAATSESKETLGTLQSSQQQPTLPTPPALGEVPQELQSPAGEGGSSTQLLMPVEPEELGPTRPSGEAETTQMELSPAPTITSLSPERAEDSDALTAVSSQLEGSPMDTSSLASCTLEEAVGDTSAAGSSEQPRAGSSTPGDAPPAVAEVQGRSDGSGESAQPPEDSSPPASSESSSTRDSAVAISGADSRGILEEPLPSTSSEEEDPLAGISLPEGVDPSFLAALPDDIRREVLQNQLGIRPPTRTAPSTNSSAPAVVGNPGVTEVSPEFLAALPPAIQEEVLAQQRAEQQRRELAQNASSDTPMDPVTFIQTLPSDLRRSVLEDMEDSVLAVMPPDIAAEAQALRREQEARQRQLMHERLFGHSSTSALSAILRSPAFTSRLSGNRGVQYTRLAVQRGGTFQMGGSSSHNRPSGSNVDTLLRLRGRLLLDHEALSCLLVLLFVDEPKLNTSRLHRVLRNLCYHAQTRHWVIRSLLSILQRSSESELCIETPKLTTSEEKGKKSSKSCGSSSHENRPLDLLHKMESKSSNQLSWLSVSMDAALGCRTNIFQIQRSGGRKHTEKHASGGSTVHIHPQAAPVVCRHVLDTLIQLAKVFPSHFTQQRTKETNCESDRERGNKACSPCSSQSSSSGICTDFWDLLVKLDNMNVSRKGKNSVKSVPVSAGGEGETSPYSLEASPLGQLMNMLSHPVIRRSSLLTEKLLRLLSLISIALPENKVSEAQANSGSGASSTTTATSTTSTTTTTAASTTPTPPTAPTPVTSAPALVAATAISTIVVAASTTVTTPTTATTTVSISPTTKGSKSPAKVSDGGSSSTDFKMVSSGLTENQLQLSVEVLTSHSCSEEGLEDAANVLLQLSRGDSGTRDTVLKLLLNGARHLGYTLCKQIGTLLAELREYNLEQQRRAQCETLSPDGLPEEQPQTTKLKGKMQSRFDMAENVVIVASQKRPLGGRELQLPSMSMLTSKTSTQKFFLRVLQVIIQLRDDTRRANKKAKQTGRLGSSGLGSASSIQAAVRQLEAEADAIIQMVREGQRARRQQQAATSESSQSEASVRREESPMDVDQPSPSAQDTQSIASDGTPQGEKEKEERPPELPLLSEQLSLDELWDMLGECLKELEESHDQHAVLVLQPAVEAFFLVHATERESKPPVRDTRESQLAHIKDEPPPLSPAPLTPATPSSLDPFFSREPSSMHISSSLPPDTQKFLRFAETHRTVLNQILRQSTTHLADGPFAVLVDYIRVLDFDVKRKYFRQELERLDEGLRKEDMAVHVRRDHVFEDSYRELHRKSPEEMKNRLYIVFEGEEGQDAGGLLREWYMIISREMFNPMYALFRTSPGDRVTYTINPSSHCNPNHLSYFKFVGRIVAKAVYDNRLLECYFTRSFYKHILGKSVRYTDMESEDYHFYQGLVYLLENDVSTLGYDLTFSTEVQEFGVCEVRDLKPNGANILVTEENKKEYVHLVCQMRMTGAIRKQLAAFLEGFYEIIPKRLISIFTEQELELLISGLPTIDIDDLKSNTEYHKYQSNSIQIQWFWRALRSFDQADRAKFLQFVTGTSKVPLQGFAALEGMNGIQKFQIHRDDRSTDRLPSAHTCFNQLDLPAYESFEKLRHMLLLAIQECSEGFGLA

Row | SMILES | 100 Max ([1]; uniprot Q5H9S7) | 100 ave ([1]; uniprot Q5H9S7) | 100 ave ([2]; uniprot Q7Z6Z7) | 100 Max ([2]; uniprot Q7Z6Z7, unit assumed) [%] | 100 Max ([3]; uniprot Q9H9P8) | 100 ave ([3]; uniprot Q9H9P8) | 500 Max ([3]; uniprot Q9H9P8) | 500 ave ([3]; uniprot Q9H9P8) | Liganded ([1]; DCAF17 Res# 20, uniprot Q5H9S7) | 500 Max ([1]; uniprot Q5H9S7) | 500 ave ([1]; uniprot Q5H9S7) | Liganded ([2]; HUWE1 Res# 2181, uniprot Q7Z6Z7) | Liganded ([3]; L2HGDH Res# 187, uniprot Q9H9P8)
1 | O=C(CCl)Nc1cc(C(F)(F)F)cc(C(F)(F)F)c1 [KBO3] | −21.2 | −21.2 | 9.7 | 9.7 | 39.03 | 26.9925 | 70.21 | 67.435 | – | – | – | – | –
2 | COc1ccc2c(c1)CCCN2C(=O)CCl [KB02] | 60.8 | 40.3 | – | – | – | – | – | – | YES | 91.7 | 91.7 | YES | YES
